Data as given in PMC8151276, “An Integrated Approach toward NanoBRET Tracers for Analysis of GPCR Ligand Engagement” (Molecules, 2021).

Experiments:
XCR1 = biological target: T1, XCR1 (Homo sapiens, UniProt P46094); test: NanoBRET screen HiBiT-XCR1 in HEK293; type: binding
T1 construct: purchased Promega (in-house HiBiT-GPCR construct library, NanoBRET)
T1 sequence (P46094 1-333): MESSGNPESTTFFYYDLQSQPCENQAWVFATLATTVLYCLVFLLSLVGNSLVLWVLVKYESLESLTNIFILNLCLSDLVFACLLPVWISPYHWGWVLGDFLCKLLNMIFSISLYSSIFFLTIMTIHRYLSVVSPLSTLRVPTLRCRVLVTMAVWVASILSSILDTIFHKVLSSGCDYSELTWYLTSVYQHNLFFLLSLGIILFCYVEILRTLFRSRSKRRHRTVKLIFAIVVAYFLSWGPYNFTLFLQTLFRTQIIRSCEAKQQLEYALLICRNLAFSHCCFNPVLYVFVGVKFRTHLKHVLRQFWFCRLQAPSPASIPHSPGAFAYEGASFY
Protocol: (§1) Each tracer candidate was screened across the entire library of HiBiT-GPCR constructs using NanoBRET as the detection modality. As depicted in Figure 4A, the specificity of interactions was evaluated through decrease in BRET due to competitive displacement of a bound tracer by excess parental compound. Each tracer was analyzed for binding to each HiBiT-GPCR fusion in the absence and in the presence of competing parental compound. Briefly, HEK293 cells were transfected with HiBiT-GPCR constructs diluted into promoterless DNA to reduce expression and maximize translocation to the cell surface. Each tracer candidate was then screened at concentrations of 1 μM and 0.1 μM across cells expressing these fusions. Cells were treated for 1.5 h with tracer either alone or in the presence of 20 μM competing parental compound (i.e., control). BRET was measured upon addition of purified LgBiT and subsequent complementation with HiBiT genetically fused to a GPCR. The specificity of interactions was assessed through a decrease in BRET signal due to competitive displacement of the bound tracer. To further gauge the robustness of these interactions, the fold response over the control (i.e., BRETtracer/BRETcontrol) was calculated. We chose a 1.5-fold response, which translates to ≥7-fold signal over noise as the minimal threshold required to score an interaction as positive. […]. Below we highlight the screening results obtained for our exemplary fluorescent tracers based on Clozapine, Amitriptyline and AZD1283.
(§2) HiBiT-GPCR DNA constructs were diluted in 10 mM Tris pH 8 to a final concentration of 0.01 μg/μL, arrayed in 96-well plates and stored at −20 °C. For transfection, HEK293 cells were suspended in Opti-MEM (without phenol red) supplemented with 2% fetal bovine serum (Seradigm) and 100 units/mL penicillin–streptomycin (Gibco) at a final concentration of 220,000 cells/mL and dispensed into white 96-well plates at 90 μL/well. Subsequent transfections and screens were carried using an Agilent Bravo Automated Liquid Handling Platform. First, the 96-well HiBiT DNA arrays were diluted 25-fold in Opti-MEM (without serum or phenol red) to a final concentration of 0.0004 μg/μL and 20 μL of the diluted DNAs were transferred into new 96-well plates. Next, promoterless carrier DNA (1 μg/μL) was diluted 25-fold (0.04 μg/μL) and then dispensed into the diluted arrays at 20 μL/well. Following brief mixing, Viafect transfection reagent (Promega) diluted 16-fold into Opti-MEM was dispensed into the plates at 40 μL/well. After mixing by pipetting, plates were incubated for 10 min on the pipetting station deck. The DNA-transfection reagent complexes were then added to plates containing cells. To facilitate the screen, 10 μL of DNA-transfection reagent complexes were added in duplicates to the top 4 and bottom 4 rows, resulting in two identical 48-well arrays per plate. Plates with transfected cells were incubated for 18–20 h at 37 °C/5% CO2. A screen of each tracer across the entire library using two different concentrations requires duplicate plates of transfected cells. Depending on the number of tracers being screened, transfections can be scaled up using the same ratios. The next day, for each tracer, four 20× screening solutions in tracer dilution buffer (Promega) were prepared: two duplicates at final concentration of 20 μM and two duplicates at a final concentration of 2 μM. A competing unmodified compound was added to one of each duplicate at a final concentration of 400 μM. The four resulting solutions were diluted 4-fold in Opti-MEM without serum or phenol red to generate 5× solutions (5 µM and 0.5 µM tracer +/− 100 μM competing compound). To screen the library, a BioTek MultiFlo FX liquid dispenser was used to dispense 22.5 µL of tracer solution to the top 4 rows and 22.5 µL tracer + competing compound solution to the 4 bottom rows. Plates were briefly mixed on an orbital shaker and incubated for 1.5 h at room temperature. […]

PTGER4 = biological target: T2, PTGER4 (Homo sapiens, UniProt P35408); test: NanoBRET screen HiBiT-PTGER4 in HEK293; type: binding
T2 construct: purchased Promega (in-house HiBiT-GPCR construct library, NanoBRET)
T2 sequence (P35408 whole entry): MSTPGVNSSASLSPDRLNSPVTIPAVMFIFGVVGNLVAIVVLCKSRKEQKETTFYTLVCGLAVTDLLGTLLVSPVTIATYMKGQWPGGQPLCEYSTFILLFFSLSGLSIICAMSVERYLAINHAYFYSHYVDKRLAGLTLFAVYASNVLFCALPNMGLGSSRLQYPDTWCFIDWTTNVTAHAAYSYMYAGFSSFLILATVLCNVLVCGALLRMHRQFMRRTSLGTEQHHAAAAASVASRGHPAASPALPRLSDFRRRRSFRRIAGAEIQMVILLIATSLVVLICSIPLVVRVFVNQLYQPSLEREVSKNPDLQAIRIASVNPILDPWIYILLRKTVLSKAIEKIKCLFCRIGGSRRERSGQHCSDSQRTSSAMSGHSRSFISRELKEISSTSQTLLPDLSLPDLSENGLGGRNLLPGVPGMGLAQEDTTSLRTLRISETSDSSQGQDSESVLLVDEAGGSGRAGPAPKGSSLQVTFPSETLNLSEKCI
Protocol: as §1, §2

Compound	NanoBRET Fold Response (XCR1; XCR1, tracer 0.1μM)	NanoBRET Fold Response (XCR1; XCR1, tracer 1μM)	NanoBRET Fold Response (PTGER4; PTGER4, tracer 0.1μM)	NanoBRET Fold Response (PTGER4; PTGER4, tracer 1μM)	further results
CCOC(=O)c1cc(C#N)c(N2CCC(C(=O)NS(=O)(=O)Cc3ccccc3/C=C/C(=O)NCCNC(=O)CCc3ccc4n3[B-](F)(F)[N+]3=C(c5ccc[nH]5)C=CC3=C4)CC2)nc1C [AZD1283-1-NB590]	–	–	–	–	NanoBRET Fold Response (XCR1; XCR1, 0.1μM): 1.04; NanoBRET Fold Response (XCR1; XCR1, 1μM): 1.00; NanoBRET Fold Response (PTGER4; PTGER4, 0.1μM): 1.03; NanoBRET Fold Response (PTGER4; PTGER4, 1μM): 1.02
N#CN=C(NCCCOc1cccc(CN2CCCCC2)c1)NCCNC(=O)CCOCCOCCOCCOCCNC(=O)CCc1ccc2n1[B-](F)(F)[N+]1=C(c3ccc[nH]3)C=CC1=C2 [Aminopotentidine-2-NB590]	1.11	0.87	1.05	1.03	–
CN(C)CCC=C1c2ccccc2CCc2ccc(C(=O)NCCNC(=O)CCOCCOCCOCCOCCNC(=O)CCc3ccc4n3[B-](F)(F)[N+]3=C(c5ccc[nH]5)C=CC3=C4)cc21 [Amitriptyline-a-2-NB590]	–	–	–	–	NanoBRET Fold Response (XCR1; tracer at 0.1μM): 1.05; NanoBRET Fold Response (XCR1; tracer at 1μM): 0.96
CN(C)CCC=C1c2ccccc2CCc2ccc(C(=O)NCCNC(=O)CCOCCOCCOCCOCCNC(=O)CCc3ccc4n3[B-](F)(F)[N+]3=C(c5ccc[nH]5)C=CC3=C4)cc21 [Amitriptyline-b-2-NB590]	–	–	–	–	NanoBRET Fold Response (XCR1; tracer at 0.1μM, listed as amitriptyline-b-2-NB590): 0.92; NanoBRET Fold Response (XCR1; tracer at 1μM, listed as amitriptyline-b-2-NB590): 0.83; NanoBRET Fold Response (PTGER4; tracer at 0.1μM): 0.99; NanoBRET Fold Response (PTGER4; tracer at 1μM): 1.04
CN(CCC=C1c2ccccc2CCc2ccccc21)C(=O)CCOCCOCCOCCOCCNC(=O)CCc1ccc2n1[B-](F)(F)[N+]1=C(c3ccc[nH]3)C=CC1=C2 [Amitriptyline-e-2-NB590]	–	–	–	–	NanoBRET Fold Response (XCR1; tracer at 1μM): 0.99
COc1ccc2c(n1)c(CCNC(C)=O)cn2CCNC(=O)CCc1ccc2n1[B-](F)(F)[N+]1=C(c3ccc[nH]3)C=CC1=C2 [Azamelatonin-1-NB590]	–	–	–	–	NanoBRET Fold Response (XCR1; 0.1μM tracer): 1.33; NanoBRET Fold Response (XCR1; 1μM tracer): 1.18; NanoBRET Fold Response (PTGER4; 0.1μM tracer): 1.06; NanoBRET Fold Response (PTGER4; 1μM tracer): 0.96
COc1ccc2[nH]c(-c3ccc(CNC(=O)CCOCCOCCOCCOCCNC(=O)CCc4ccc5n4[B-](F)(F)[N+]4=C(c6ccc[nH]6)C=CC4=C5)cc3)c(CCNC(C)=O)c2n1 [AzomelatoninICO9-2-NB590]	–	–	–	–	NanoBRET Fold Response (XCR1; 0.1μM tracer): 0.42; NanoBRET Fold Response (XCR1; 1μM tracer): 0.90; NanoBRET Fold Response (PTGER4; 0.1μM tracer): 0.97; NanoBRET Fold Response (PTGER4; 1μM tracer): 0.97
O=C(CCOCCOCCOCCOCCNC(=O)CCc1ccc2n1[B-](F)(F)[N+]1=C(c3ccc[nH]3)C=CC1=C2)NCCCN1CCN(C2=Nc3cc(Cl)ccc3Nc3ccccc32)CC1 [Clozapine-a-2-NB590]	–	–	–	–	NanoBRET Fold Response (XCR1; XCR1, 0.1μM tracer): 1.01; NanoBRET Fold Response (XCR1; XCR1, 1μM tracer): 0.98; NanoBRET Fold Response (PTGER4; PTGER4, 0.1μM tracer): 1.02; NanoBRET Fold Response (PTGER4; PTGER4, 1μM tracer): 1.06
CN1CCN(C2=Nc3cc(Cl)ccc3Nc3ccc(CNC(=O)CCOCCOCCOCCOCCNC(=O)CCc4ccc5n4[B-](F)(F)[N+]4=C(c6ccc[nH]6)C=CC4=C5)cc32)CC1 [Clozapine-b-2-NB590]	–	–	–	–	NanoBRET Fold Response (XCR1; XCR1, 0.1μM tracer): 0.94; NanoBRET Fold Response (XCR1; XCR1, 1μM tracer): 1.18; NanoBRET Fold Response (PTGER4; PTGER4, 0.1μM tracer): 1.03; NanoBRET Fold Response (PTGER4; PTGER4, 1μM tracer): 1.03
CN1CCN(C2=Nc3cc(Cl)ccc3N(CC(=O)NCCOCCOCCOCCOCCNC(=O)CCc3ccc4n3[B-](F)(F)[N+]3=C(c5ccc[nH]5)C=CC3=C4)c3ccccc32)CC1 [Clozapine-c-2-NB590]	–	–	–	–	NanoBRET Fold Response (XCR1; XCR1, 0.1μM tracer): 0.99; NanoBRET Fold Response (XCR1; XCR1, 1μM tracer): 1.03; NanoBRET Fold Response (PTGER4; PTGER4, 0.1μM tracer): 1.00; NanoBRET Fold Response (PTGER4; PTGER4, 1μM tracer): 1.05
O=C(CCOCCOCCOCCOCCNC(=O)CCc1ccc2n1[B-](F)(F)[N+]1=C(c3ccc[nH]3)C=CC1=C2)NCCCN1CCN(C2=Nc3ccccc3Oc3ccc(Cl)cc32)CC1 [Loxapine-a-2-NB590]	0.44	0.91	0.97	1.07	–
COc1ccccc1N1CCN(CCCCN2C(=O)c3ccc(CNC(=O)CCOCCOCCOCCOCCNC(=O)CCc4ccc5n4[B-](F)(F)[N+]4=C(c6ccc[nH]6)C=CC4=C5)cc3C2=O)CC1 [NAN-190-2-NB590]	1.44	–	1.02	1.01	–
COc1ccccc1N1CCN(CCCCN2C(=O)c3ccc(CNC(=O)CCOCCNC(=O)c4ccc(CNC(=O)CCc5ccc6n5[B-](F)(F)[N+]5=C(c7ccc[nH]7)C=CC5=C6)cc4)cc3C2=O)CC1 [NAN-190-3-NB590]	1.29	1.34	1.00	0.97	–
O=C(CCc1ccc2n1[B-](F)(F)[N+]1=C(c3ccc[nH]3)C=CC1=C2)NCc1ccc(C(=O)NCCOCCC(=O)N[C@@H]2CC[C@@]3(O)[C@H]4Cc5ccc(O)c6c5[C@@]3(CCN4CC3CC3)[C@H]2O6)cc1 [Naltrexone-3-NB590]	0.97	0.61	0.94	1.01	–
Cc1cc2c(s1)Nc1ccccc1N=C2N1CCN(CCCNC(=O)CCOCCOCCOCCOCCNC(=O)CCc2ccc3n2[B-](F)(F)[N+]2=C(c4ccc[nH]4)C=CC2=C3)CC1 [Olanzapine-a-2-NB590]	0.88	1.27	1.02	1.07	–
O=C(CCc1ccc2n1[B-](F)(F)[N+]1=C(c3ccc[nH]3)C=CC1=C2)NCc1ccc(C(=O)NCCOCCOCCNCC(O)COc2cccc3ccccc23)cc1 (centres unmarked) [Propranolol-3-NB590]	–	–	–	–	NanoBRET Fold Response (XCR1; XCR1, 0.1μM): 1.02; NanoBRET Fold Response (XCR1; XCR1, 1μM): 0.97; NanoBRET Fold Response (PTGER4; PTGER4, 0.1μM): 1.04; NanoBRET Fold Response (PTGER4; PTGER4, 1μM): 1.06
O=C(CCc1ccc2n1[B-](F)(F)[N+]1=C(c3ccc[nH]3)C=CC1=C2)NCCOCCOCCNC(=O)OCCOCCN1CCN(C2=Nc3ccccc3Sc3ccccc32)CC1 [Quetiapine-a-2-NB590]	1.07	1.04	1.02	1.08	–
Cc1nc2n(c(=O)c1CCN1CCC(c3noc4cc(F)ccc34)CC1)CCCC2OC(=O)NCCOCCOCCOCCOCCNC(=O)CCc1ccc2n1[B-](F)(F)[N+]1=C(c3ccc[nH]3)C=CC1=C2 (centres unmarked) [Risperidone-2-NB590]	0.97	0.88	1.00	1.04	–
CC(C)N(CC[C@H](c1ccccc1)c1cc(CCNC(=O)CCOCCOCCOCCOCCNC(=O)CCc2ccc3n2[B-](F)(F)[N+]2=C(c4ccc[nH]4)C=CC2=C3)ccc1O)C(C)C [Tolterodine-2-NB590]	0.81	1.17	1.00	0.99	–
CC(C)N(CC[C@H](c1ccccc1)c1cc(CCNC(=O)c2ccc(CNC(=O)CCc3ccc4n3[B-](F)(F)[N+]3=C(c5ccc[nH]5)C=CC3=C4)cc2)ccc1O)C(C)C [Tolterodine-BZ-NB590]	0.80	0.95	1.02	1.04	–
